Patent publication US20250034091A1, “Small molecule inhibitors of lanosterol synthase” (Board of Regents, The University of Texas System, priority 2022, published 2025)

Tests used:
[1] = tested on: Dhcr7; test: displacement of Dhcr7-specific probe; format: binding, mouse
[2] = tested on: Ebp, Dhcr7, and Dhcr24; test: cellular levels of sterols that mark inhibition of Ebp, Dhcr7, Dhcr24; format: cell-based; conditions: for cellular 8,9-dehydrocholesterol (8,9-DHC) levels: marker of EBP inhibition
Source text: Inhibition of these sterol biosynthetic enzymes might provide an explanation for our observation that Ro-48-8071 has a blunted increase in EPC following LSS inhibition. […] Consistent with the proteomics data, Ro 48-8071 and TASIN-30, but not 1, displaced TASIN-2 (band migrating at approximately 20 kDa).
Consistent with inhibition, the cellular levels of 7-dehydrodesmosterol, a Dhcr7 substrate, accumulated following treatment with Ro 48-8071 but not 1.

[3] = tested on: Lss; test: quantification of canonical and shunt pathway sterol intermediates in Mut6 cells; format: cell-based, mouse
Source text: Inhibitors of LSS block the canonical cholesterol biosynthetic pathway (referred to as the Bloch and Kandutsch-Russell pathways) and concomitantly stimulate the production of 24(S),25-epoxycholesterol (EPC) through a “shunt” pathway (Mark et al., 1996; Morand et al., 1997). For sterol synthesis, squalene, a symmetric polyene hydrocarbon intermediate in the cholesterol biosynthetic pathway, is oxidized by squalene epoxidase (SQLE) in the presence of NADPH and oxygen to generate (S)-2,3-oxidosqualene (OS), which in turn is converted by LSS into lanosterol. LSS inhibition shunts OS back to SQLE, which catalyzes a second oxidation event yielding the C2-symmetric (S,S)-2,3:22,23-dioxidosqualene (DOS). DOS is a preferred substrate for LSS and, even in the presence of an LSS inhibitor, DOS is converted by LSS into 24(S),25-epoxylanosterol (EPL) (Boutaud et al., 1992). EPL is further converted into EPC by the same enzymes that convert lanosterol into cholesterol (Nelson et al., 1981a; Nelson et al., 1981b). The overall consequence of LSS inhibition is reduced levels of canonical pathway intermediates and increased levels of shunt pathway intermediates. […] We considered that the decrease in EPC at higher concentrations might be the result of complete inhibition of LSS; however, the levels of DOS and EPL continued to increase at doses where EPC was decreasing. […] Pertinent to this hypothesis, in astrocytes, EPC stimulates the expression of sterol transporters including ABCA1 and is itself readily effluxed (Wong et al., 2007). We hypothesize that a threshold level of EPC, reached at higher concentrations of 1, activates transporter expression, leading to EPC efflux and the observed decrease in EPC levels. Taken together, we conclude that inhibition of Lss by MM0299 (1) leads to a dose-dependent decrease in canonical intermediates and an increase in shunt pathway intermediates.
To better gauge the role of EPC in the anti-cancer activity of 1, we sought to determine whether the levels of EPC achieved in cells treated with 1 are sufficient for toxicity.

[4] = tested on: enzymes downstream of LSS; test: d6-EPC production from isotopically labeled EPL (d6-EPL) in cells; format: cell-based
Source text: This latter observation raised the hypothesis that Ro 48-8071 inhibited one or more enzymes downstream of LSS thereby blunting EPC synthesis. To evaluate whether Ro 48-8071 inhibits the synthesis of EPC downstream of EPL, we cultured cells with isotopically labeled EPL (d6-EPL) and measured d6-EPC production following compound treatment. Ro 48-8071 inhibited the production of d6-EPC while 1 had no effect on d6-EPC production. […] For small molecules that inhibit enzymes downstream of LSS, our prediction is that lanosterol would not be efficiently converted to cholesterol and therefore would not rescue toxicity as effectively as cholesterol. […] By comparison, exogenous lanosterol and cholesterol provided a complete and equivalent degree of rescue in cells treated with 1.

[5] = tested on: Mut6 cells; test: rescue of toxicity by co-treatment with SQLE inhibitor NB-598 in Mut6 cells; format: cell-based, murine; conditions: co-treatment with NB-598
Source text: To assess whether EPC was necessary for MM0299 activity, we considered pharmacologic tools that could selectively block the shunt pathway. In the context of LSS inhibition, the production of DOS requires two cycles of oxidation by squalene epoxidase (SQLE), whereas OS only requires one. Therefore, we reasoned that co-administration of an SQLE inhibitor might have a greater effect on DOS levels and impede flux through the shunt pathway. […] Taken together, we concluded that NB-598 is a pharmacologic tool to selectively block the shunt pathway and assess the requirement for EPC for MM0299 activity. […] These observations are consistent with the hypothesis that inhibition of LSS and the consequent increase in EPC are responsible for toxicity at low nanomolar range. We noted that 1 remained toxic to Mut6 cells at higher concentrations despite the addition of NB-598. Toxicity at these concentrations, which are not likely to be pharmacologically achievable, is unlikely to be a consequence of EPC production, and more likely to be the result of sterol depletion through direct inhibition of cholesterol biosynthesis.
As a consequence, even though Ro-48-8071 inhibits LSS, its anti-proliferative effects are more likely to be multifactorial. To evaluate the contribution of EPC for Ro 48-8071-induced toxicity, we co-incubated Ro 48-8071 with increasing concentrations of NB-598.

[6] = tested on: UTSW63; test: rescue of toxicity by NB-598 in UTSW63; format: cell-based, human; conditions: lower doses of NB-598
Protocol: Like Mut6 cells, both UTSW63 and UTSW71 grow as neurospheres in serum-free medium (data not shown). […] MM0299 toxicity in the two human GSC lines is completely rescued by exogenous MCD-conjugated lanosterol or cholesterol. A naturally occurring mechanism for the import of extracellular cholesterol is the uptake of circulating low-density lipoprotein (LDL). Therefore, we investigated whether human LDL could rescue MM0299 toxicity in human GBM cells. Addition of 20 μg/ml human LDL completely rescued the toxicity of 1 in both UTSW63 and UTSW71 cells. To investigate the role of the shunt pathway in MM0299 toxicity, we again turned to the tool compound NB-598.

[7] = tested on: Mut6 cells; test: rescue of toxicity by exogenous lanosterol or cholesterol in Mut6 cells; format: cell-based, murine
Source text: Taken together, we concluded that the levels of EPC resulting from 1 treatment are sufficient to downregulate SREBP target genes, upregulate LXR target genes, and block cell proliferation. Through its coordinated action on the critical transcriptional regulators of cholesterol homeostasis, LXRs and SREBPs, EPC can cause lethal reductions in cellular cholesterol levels. To test this hypothesis, we evaluated cell proliferation following treatment with increasing doses of either S-EPL or 1 in the presence of exogenous lanosterol or cholesterol conjugated to methyl beta-cyclodextrin (MCD), which aids sterol solubility and delivery. Supplementing cells with either lanosterol or cholesterol rescued Mut6 cells from the toxic effects of either S-EPL or 1. These observations provide evidence that the anti-proliferative activity of 1 is due to the production of EPC and the resulting depletion of cellular cholesterol.
This latter observation raised the hypothesis that Ro 48-8071 inhibited one or more enzymes downstream of LSS thereby blunting EPC synthesis. To evaluate whether Ro 48-8071 inhibits the synthesis of EPC downstream of EPL, we cultured cells with isotopically labeled EPL (d6-EPL) and measured d6-EPC production following compound treatment. Ro 48-8071 inhibited the production of d6-EPC while 1 had no effect on d6-EPC production. […]

SMILES: COc1ccc(C(=O)COc2ccc(N3C(=O)[C@@H]4[C@@H]5C=C[C@@H]([C@H]6C[C@@H]56)[C@@H]4C3=O)cc2)cc1 [compound 1, (3aR,4R,4aR,5aS,6S,6aS)-2-(4-(2-(4-Methoxyphenyl)-2-oxoethoxy)phenyl)-4,4a,5,5a,6,6a-hexahydro-4,6-ethenocyclopropa[f]isoindole-1,3(2H,3aH)-dione]
- displacement of Dhcr7-probe (crosslinked Dhcr7 band) [1]: did not displace
- cellular 8,9-dehydrocholesterol (8,9-DHC) levels [2]: no effect
- increase of EPC at peak ([3]; 0.1 μM compound 1): 13.9 fold
- peak level of EPC ([3]; 0.1 μM compound 1): 390 ng/mg protein
- EPC level after lethal dose ([3]; 1 at 0.1 μM): 342 ng EPC/mg protein
- IC50 ([3]; Mus musculus, read-out: IC50 of lanosterol decrease): 0.0455 µM
- dose-dependent decrease in the product lanosterol ([3]; maximum): up to 24.5 fold
- dose-dependent increase in the primary LSS substrate OS ([3]; maximum): up to 6.48 fold
- increase in shunt pathway intermediate DOS ([3]; maximum): up to 17.9 fold
- increase in shunt pathway intermediate EPL ([3]; maximum): ≤ 25.6 fold
- effect on d6-EPC production from d6-EPL [4]: no effect
- increase in the IC50 with NB-598 [5]: 11.8 fold
- increase in IC50 with NB-598, UTSW63 [6]: 15.0 fold

SMILES: C=CCN(C)CCCCCCOc1ccc(C(=O)c2ccc(Br)cc2)c(F)c1 [Ro 48-8071, reference compound]
- increase in the IC50 with exogenous cholesterol [7]: 479.4 fold
- increase in the IC50 with exogenous lanosterol [7]: 21.7 fold
- displacement of Dhcr7-probe (crosslinked Dhcr7 band) [1]: displaced
- cellular levels of 7-dehydrodesmosterol ([2]; Dhcr7 substrate): accumulated
- accumulation of desmosterol ([2]; marker of Dhcr24 inhibition, high doses): accumulation
- cellular 8,9-dehydrocholesterol (8,9-DHC) levels [2]: accumulation
- peak levels of EPC relative to those after 1 treatment [3]: 62%
- effect on d6-EPC production from d6-EPL [4]: inhibited
- increase in the IC50 with NB-598 [5]: 3.2 fold
